The assay concerns the target T1, BACE1 enzyme (soluble, truncated BACE enzyme, BACE1deltaTM96His) (Homo sapiens, UniProt P56817).
T1 construct: soluble, truncated BACE enzyme (BACE1deltaTM96His); His; made in house
The assay is described as follows: BACE1 Fluorescent Polarization (FP) Assay. The class given is biochemical. As to conditions: geometric mean of 2-4 IC50 determinations unless footnoted (^2: 5-6 determinations; ^4: single determination). An excerpt: BACE1 Fluorescent Polarization (FP) Assay
The fluorescently tagged synthetic substrate, Biotin-GLTNIKTEEISEISŶEVEFR-C[oregon green]KK-OH can be efficiently cleaved by the beta-secretase enzyme and is therefore useful to assay beta-secretase activity in the presence or absence of inhibitory compounds. The his tagged BACE1 enzyme was affinity purified material from conditioned media of CHO-K1 cells that had been transfected to express soluble, truncated BACE enzyme (BACE1deltaTM96His). Compounds were incubated in a ½ log dose response (from a top concentration of 100 μM) with BACE1 enzyme (0.1 nM final) and the biotinylated fluorescent peptide substrate (150 nM final) in assay buffer containing 100 mM sodium acetate, pH 4.5 (brought to pH with acetic acid), and 0.001% Tween-20. Total reaction volumes of 30 μL were carried out in 384-well black plates (Thermo Scientific 4318). Plates were covered and incubated for 3 hours at 37° C. The reactions were then stopped by addition of 30 μL of 1.5 μM Streptavidin (Pierce, 21125). After a 10 minute incubation at room temperature, plates were read on a PerkinElmer Envision for fluorescence polarization (Ex485 nm/Em530 nm). The activity of the beta-secretase enzyme is detected by changes in the fluorescence polarization (Δ mP) that occur when the substrate is cleaved by the enzyme.

Where [1] appears, read: 11-point curve, read-out: BACE activity, 11-point curve, IC50.
Setting [2] is: 8-point curve, read-out: BACE activity, 8-point curve, IC50.

SMILES strings stand for the structures. Counter-ions that a name gives are not always drawn. Like-named read-outs stand apart in the source and are kept apart here.

T1 sequence (P56817 46-457): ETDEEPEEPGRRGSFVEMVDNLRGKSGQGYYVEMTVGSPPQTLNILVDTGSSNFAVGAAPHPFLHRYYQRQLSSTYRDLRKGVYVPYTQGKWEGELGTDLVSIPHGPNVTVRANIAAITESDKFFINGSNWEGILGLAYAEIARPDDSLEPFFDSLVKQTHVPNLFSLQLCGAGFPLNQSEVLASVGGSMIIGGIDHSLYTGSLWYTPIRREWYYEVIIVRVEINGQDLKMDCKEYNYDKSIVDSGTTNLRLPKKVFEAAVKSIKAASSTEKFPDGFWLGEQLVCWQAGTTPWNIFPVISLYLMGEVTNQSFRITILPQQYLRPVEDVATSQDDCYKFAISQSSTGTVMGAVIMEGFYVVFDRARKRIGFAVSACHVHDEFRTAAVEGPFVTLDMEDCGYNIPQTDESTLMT

In the case of `CC(C)Oc1cccc(CN2CC[C@@]3(C[C@@H]2C)C(=O)C(C)(C)S(=O)(=O)N3c2cccc(F)c2)c1` [Example 64, (5R,7S)-1-(3-fluorophenyl)-8-(3-isopropoxybenzyl)-3,3,7-trimethyl-2-thia-1,8-diazaspiro[4.5]decan-4-one 2,2-dioxide, hydrochloride salt], the IC50 under setting [1] worked out at 25.7 µM.
The same measure, in the same setting: next, `C[C@H]1C[C@]2(CCN1Cc1ncoc1-c1cncnc1)CCS(=O)(=O)N2c1cccc(F)c1` [Example 33, (5R,7S)-1-(3-fluorophenyl)-7-methyl-8-[(5-pyrimidin-5-yl-1,3-oxazol-4-yl)methyl]-2-thia-1,8-diazaspiro[4.5]decane 2,2-dioxide, hydrochloride salt]: 3.03 µM.
Turning to `Cc1cncc(-c2ocnc2CN2CC[C@]3(C=CS(=O)(=O)N3c3cccc(F)c3)C[C@@H]2C)c1` [Example 38, (5R,7S)-1-(3-fluorophenyl)-7-methyl-8-{[5-(5-methylpyridin-3-yl)-1,3-oxazol-4-yl]methyl}-2-thia-1,8-diazaspiro[4.5]dec-3-ene 2,2-dioxide], the IC50 is, setting by setting: under setting [2], 0.752 µM; under setting [1], 2.78 µM.
With `CC(C)Cc1ocnc1CN1CC[C@]2(C=CS(=O)(=O)N2c2cccc(F)c2)C[C@@H]1C` [Example 12, (5R,7S)-1-(3-fluorophenyl)-8-[(5-isobutyl-1,3-oxazol-4-yl)methyl]-7-methyl-2-thia-1,8-diazaspiro[4.5]dec-3-ene 2,2-dioxide], the IC50 under setting [2] came to 0.338 µM.
For the molecule `CCc1ccccc1-c1cc(CN2CC[C@]3(C=CS(=O)(=O)N3c3cccc(F)c3)C[C@@H]2C)ccc1O` [Example 6, 2′-ethyl-5-{[(5R,7S)-1-(3-fluorophenyl)-7-methyl-2,2-dioxido-2-thia-1,8-diazaspiro[4.5]dec-3-en-8-yl]methyl}biphenyl-2-ol], the half-inhibitory concentration (IC50) under setting [2] is under 0.0042 µM.
Consider `Cc1cncc(-c2ocnc2CN2CC[C@]3(CCS(=O)(=O)N3c3cccc(F)c3)C[C@@H]2C)c1` [Example 57, (5R,7S)-1-(3-fluorophenyl)-7-methyl-8-{[5-(5-methylpyridin-3-yl)-1,3-oxazol-4-yl]methyl}-2-thia-1,8-diazaspiro[4.5]decane 2,2-dioxide, hydrochloride salt], for which the half-maximal inhibitory concentration (IC50) under setting [1] amounted to 4.08 µM.
On to `Cc1ccsc1-c1ncsc1CN1CC[C@]2(C=CS(=O)(=O)N2c2cccc(F)c2)C[C@@H]1C` [Example 45, (5R,7S)-1-(3-fluorophenyl)-7-methyl-8-{[4-(3-methyl-2-thienyl)-1,3-thiazol-5-yl]methyl}-2-thia-1,8-diazaspiro[4.5]dec-3-ene 2,2-dioxide], for which the IC50 was 5.6 µM under setting [2] and 15.3 µM under setting [1].
Take `C[C@H]1C[C@]2(CCN1Cc1ccc(O)c(C3CCC3)c1)CCS(=O)(=O)N2c1cnccn1` [Example 87, 2-cyclobutyl-4-{[(5R,7S)-7-methyl-2,2-dioxido-1-(pyrazin-2-yl)-2-thia-1,8-diazaspiro[4.5]dec-8-yl]methyl}phenol]: the IC50 under setting [1] worked out at 2.67 µM.
Same read-out and setting: next, `C[C@H]1C[C@]2(CCN1Cc1ncoc1-c1cccs1)CCS(=O)(=O)N2c1cccc(F)c1` [Example 56, (5R,7S)-1-(3-fluorophenyl)-7-methyl-8-{[5-(2-thienyl)-1,3-oxazol-4-yl]methyl}-2-thia-1,8-diazaspiro[4.5]decane 2,2-dioxide, hydrochloride salt]: 15.4 µM.
Consider `Cc1cccnc1-c1cc(CN2CC[C@]3(C=CS(=O)(=O)N3c3cccc(F)c3)C[C@@H]2C)ccc1O` [Example 74, 4-{[(5R,7S)-1-(3-fluorophenyl)-7-methyl-2,2-dioxido-2-thia-1,8-diazaspiro[4.5]dec-3-en-8-yl]methyl}-2-(3-methylpyridin-2-yl)phenol], for which the IC50 by setting is: under setting [2], 0.0138 µM; under setting [1], 0.115 µM.
Turning to `CCc1ccccc1-c1cc(CN2CC[C@]3(CCS(=O)(=O)N3c3cccc(F)c3)C[C@@H]2C)ccc1O` [Example 8, 2′-ethyl-5-{[(5R,7S)-1-(3-fluorophenyl)-7-methyl-2,2-dioxido-2-thia-1,8-diazaspiro[4.5]dec-8-yl]methyl}biphenyl-2-ol], the IC50 under setting [2] was 0.124 µM.

Broadly, the IC50 is the concentration needed to halve the response being measured.

For the origin of these results see patent US20130150376A1, “Novel Sultam Compounds” (PFIZER INC., priority 2010, published 2013).
